These are literature values, as cited in patent US20050058670A1, “Oral itraconazole composition which is not affected by ingested food and process for preparing same” (priority 2003, published 2005).

Consider `CCC(C)n1ncn(-c2ccc(N3CCN(c4ccc(OCC5COC(Cn6cncn6)(c6ccc(Cl)cc6Cl)O5)cc4)CC3)cc2)c1=O` (stereo not shown) [Itraconazole], for which the solubility in water result is “less than 1 μg/ml”.
